Experimental data as given in patent US20140023611A1 (priority 2010, published 2014).

Target: T1, rat NaP2b (SLC34A2) (Rattus norvegicus, UniProt Q9JJ09)
T1 construct: host or cells: HEK293
T1 sequence (Q9JJ09 1-695): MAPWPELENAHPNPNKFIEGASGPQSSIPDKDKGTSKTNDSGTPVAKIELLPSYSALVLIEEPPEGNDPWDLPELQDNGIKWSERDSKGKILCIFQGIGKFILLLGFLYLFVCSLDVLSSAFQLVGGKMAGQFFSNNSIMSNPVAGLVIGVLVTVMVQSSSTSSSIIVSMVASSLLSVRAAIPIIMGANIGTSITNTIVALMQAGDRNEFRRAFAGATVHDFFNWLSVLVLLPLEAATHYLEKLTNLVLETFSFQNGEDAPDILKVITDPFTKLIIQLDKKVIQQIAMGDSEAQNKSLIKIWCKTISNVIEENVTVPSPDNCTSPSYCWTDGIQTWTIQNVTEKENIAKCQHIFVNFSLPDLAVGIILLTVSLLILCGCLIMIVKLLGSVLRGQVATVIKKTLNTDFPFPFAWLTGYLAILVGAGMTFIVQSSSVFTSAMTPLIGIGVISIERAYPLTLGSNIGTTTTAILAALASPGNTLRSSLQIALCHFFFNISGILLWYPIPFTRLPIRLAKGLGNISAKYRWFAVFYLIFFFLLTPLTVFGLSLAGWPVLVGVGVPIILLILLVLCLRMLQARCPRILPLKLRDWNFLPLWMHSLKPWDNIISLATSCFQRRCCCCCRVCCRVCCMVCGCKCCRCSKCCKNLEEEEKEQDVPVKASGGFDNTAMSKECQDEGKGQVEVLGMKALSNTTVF
Experiment: NaP2b-mediated Pi transport (33P uptake) in transfected HEK293 cells, rat NaP2b
Format: cell-based
Details: Structure (V) examples, Table 2; rat NaP2b, HEK293; read-out: pIC50 Range (converted)
Procedure, shortened: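 HEK293 cells transiently transfected with NaP2b cDNA, endogenous PiT transport suppressed; ^33P-phosphate uptake measured in sodium vs choline buffer (100 uM KH2PO4, pH 7.4) for 3–30 min at room temperature. Twelve concentrations, 0.1 nM–30 uM, in duplicate; uptake by scintillation counting, pIC50 calculated.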

| SMILES | IC50 |
| --- | --- |
| COCCNC(=O)CCSCc1cccc(C(=O)Nc2ccc(N3CCCCC3)cc2C(=O)N/N=C/c2ccc(Cl)c(C(F)(F)F)c2)c1 [Ex. 49, (E)-N-(2-(2-(4-chloro-3-(trifluoromethyl)benzylidene)hydrazinecarbonyl)-4-(piperidin-1-yl)phenyl)-3-((3-(2-methoxyethylamino)-3-oxopropylthio)methyl)benzamide] | 100 to 794 nM |
| O=C(NCCN1CCOCC1)c1cccc(C(=O)Nc2ccc(N3CCCCC3)cc2C(=O)N/N=C/c2ccc(Cl)c(C(F)(F)F)c2)c1 [Ex. 53, (E)-N^1-(2-(2-(4-chloro-3-(trifluoromethyl)benzylidene)hydrazinecarbonyl)-4-(piperidin-1-yl)phenyl)-N3-(2-morpholinoethyl)isophthalamide] | 100 to 794 nM |
